# Experimental data from patent US20240360137A1 (Novartis AG, priority 2023, published 2024).
# Tests used:
# Experiment in all cases: CDKi biochemical assay (TR-FRET, phosphorylation of S780 on RB1 peptide)
# [1] = molecular target: CDK2/CyclinE1 (Homo sapiens, UniProt P24941); settings: CDK2/CyclinE1 100 pM, 1 mM ATP, 60 min at 25° C.
# Description: (§1) Biochemical assays measured the inhibitory effects of compounds in this disclosure on the enzymatic activity of CDK enzyme in complex with Cyclin protein partner by phosphorylation of Ser-780 (S780) on retinoblastoma protein peptide (RB1) in the presence of 1 mM adenosime-5-triphosphate (ATP) and varying concentration of test compound in 20 mM 2-[4-(2-hydroxyethyl)paperazin-1-yl] ethanesulfonic acid (HEPES), pH 7.5, 10 mM MgCl2, 1 mM dithiothreitol (DTT), 0.01% bovine serum albumin (BSA), 0.005% Tween 20. Total Reaction volume of 10 μL proceeded for 60 minutes at room temperature (25° C.) and were quenched with 5 μL of 200 mM 2′,2″,2′″-(Ethane-1,2-diyldinitrilo)tetraacetic acid (EDTA) pH 8.0 before addition of 5 μL detection solution containing 100 nM fluorophore conjugate streptavidin allophycocyanin (SA-APC), 2 nM Europium labelled Anti-p-RB(S780)-K (Perkin Elmer, 64CUSKAY), 50 mM HEPES, pH 7.5, 400 mM potassium fluoride (KF), 0.1% BSA, and 0.01% Tween-20. Phosphorylation of S780 on RB1 peptide (His-MBP-RB1[773-924]-SEQ ID NO. 9) was detected by TR-FRET after 3 hour incubation with detection solution. Percent phosphorylation activity was plotted against log concentration of compound to generate an apparent ICSO. The following CDK enzyme in complex with different cyclin proteins and protein peptide substrate were used in these assays: • CDK1/CyclinB1, Avi-tag, 10 pM used in the assay • CDK2/CyclinE1, Avi-tag, 100 pM used in the assay • CDK4/cyclinD1, Avi-tag, 20 pM used in the assay • CDK6/cyclinD3, Avi-tag, 10 pM used in the assay • His-MBP-RB1[773-924], Avi-tag, 200 nM used in the assay
# (§2) The avi-tag is a C-terminal fusion on the CDK1/2/4/6 sequence in each of these two-protein complexes. The known avi-tag sequence, […] (SEQ ID NO. 10), is a substrate for E. coli biotin ligase BirA, which covalently attaches a biotin molecule to the e-amino group of the lysine in that sequence. The avi-tag is attached with an 8 amino-acid linker sequence GGSGGGGS (SEQ ID NO. 11), resulting in the full C-terminal fusion
# (§3) Recombinant proteins were generated as N-terminal fusions of 9× His tag—E. coli Maltose Binding Protein (MBP), with or without a C-terminal Avi-tag.^1 CDK2 and His-MBP-RB1[773-924]-c-avi were expressed in E. coli while the remainder were expressed in Sf21 insect cells. Genes were synthesized commercially (GeneArt and Twist Bioscience) using codon frequencies appropriate to the respective organisms and proprietary codon optimization strategies, and inserted into pET 24 (E. coli) or pDEST8 (insect) vectors already containing the 9× His-MBP tag using standard methods of PCR and Gibson Assembly.^2 E. coli expression was performed by auto-induction overnight at 18 or 21 C. For insect cell expression, bacmids and viruses were created,^3 then used to synchronously infect Sf21 insect cells with harvest at 40-48 hrs., per standard protocols.^4
# (§4) For CDK2/Cyclin E and CDK1/Cyclin B, the CDK and Cyclin proteins were expressed separately, lysed by sonication and clarified by centrifugation. The fusion proteins were each separately purified by immobilized metal ion affinity chromatography (IMAC) (5 mL HisTrap, Cytiva) and Superdex 200 26/60 (Cytiva) size-exclusion and complexed in vitro (1-3 hrs incubation at room temperature) prior to tag cleavage by recombinant his-tagged Tobacco Etch Virus protease or his-tagged Human rhinovirus 3C protease, as appropriate. The cleaved complex is further purified by Superdex 75 26/60 (Cytiva) size-exclusion followed by reverse-IMAC, in which the complex is in the column flow-through and residual His-MBP and his-tagged proteases are retained. The final complex is concentrated as desired by centrifugal concentration (Amicon Ultra 10,000 Da MWCO 15 mL concentrators, Millipore).
# For E. coli expressed CDK2 and His-MBP-RB1[773-924]-c-avi, the proteins were biotinylated in vitro after the first IMAC step.^1
# (§5) For the is-MBP-RB1[773-924]-c-avi, the protein was lysed by sonication and clarified by centrifugation. […]
# [2] = molecular target: CDK6/cyclinD3 (Homo sapiens, UniProt Q00534); settings: CDK6/cyclinD3 10 pM, 1 mM ATP, 60 min at 25° C.
# Description: as §1, §2, §3
# (§6) For CDK4/Cyclin D1 and CDK6/Cyclin D3, the complexes were expressed by simultaneous co-infection of insect cells by three separate viruses including one expressing untagged E. coli BirA. The expression media is supplemented with 50 uM d-biotin. The resulting protein complexes purified similarly. After lysis and clarification, the complex is purified by IMAC, Superdex 200 26/60 size exclusion, tag cleavage by human rhinovirus 3C protease, Superdex 75 26/60 size exclusion and reverse IMAC. BirA is typically not retained on the first IMAC, and excess CDK or Cyclin monomer is separated on the Superdex 200 size exclusion. Cleaved His-MBP and remaining monomer are removed by the Superdex 75 size exclusion and the reverse IMAC step. Final concentration by centrifugal concentrators as described above.
# as §5
# [3] = molecular target: CDK4/cyclinD1 (Homo sapiens, UniProt P11802); settings: CDK4/cyclinD1 20 pM, 1 mM ATP, 60 min at 25° C.
# Description: as §1, §2, §3, §6, §5
# [4] = molecular target: CDK1/CyclinB1 (Homo sapiens, UniProt P06493); settings: CDK1/CyclinB1 10 pM, 1 mM ATP, 60 min at 25° C.
# Description: as §1, §2, §3, §4, §5
Compound,IC50 [1],IC50 [2],IC50 [3],IC50 [4]
"O=C1N([C@@H]2CCC[C@@H](O)C2)c2nc(Nc3c[nH]nc3OCCO)ncc2C12CC2 [Example 42, 7′-((1R,3R)-3-hydroxycyclohexyl)-2′-((3-(2-hydroxyethoxy)-1H-pyrazol-4-yl)amino)spiro[cyclopropane-1,5′-pyrrolo[2,3-d]pyrimidin]-6′(7′H)-one]",24 nM,3010 nM,3640 nM,3740 nM
"Cn1ccc(-c2n[nH]cc2Nc2ncc3c(n2)N([C@@H]2CCC[C@@H](O)C2)C(=O)C32CC2)n1 [Example 79, 7-((1R,3R)-3-hydroxycyclohexyl)-2′-((1′-methyl-1H,1′H-[3,3′-bipyrazol]-4-yl)amino)spiro[cyclopropane-1,5′-pyrrolo[2,3-d]pyrimidin]-6′(7′H)-one]",50 nM,≥ 10000 nM,≥ 10000 nM,≥ 10000 nM
"O=C1N([C@@H]2CCC[C@@H](O)C2)c2nc(Nc3c[nH]nc3C3CCCCO3)ncc2C12CC2 (stereo partly drawn) [Example 10, 7′-((1R,3R)-3-hydroxycyclohexyl)-2′-((3-(tetrahydro-2H-pyran-2-yl)-1H-pyrazol-4-yl)amino)spiro[cyclopropane-1,5′-pyrrolo[2,3-d]pyrimidin]-6′(7′H)-one]",1220 nM,≥ 10000 nM,≥ 10000 nM,≥ 10000 nM
"O=C1N([C@@H]2CCC[C@@H](O)C2)c2nc(Nc3c[nH]nc3OC[C@H]3COC[C@H]3F)ncc2C12CC2 [Example 75, 2′-((3-((-4-fluorotetrahydrofuran-3-yl)methoxy)-1H-pyrazol-4-yl)amino)-7′-((1R,3R)-3-hydroxycyclohexyl)spiro[cyclopropane-1,5′-pyrrolo[2,3-d]pyrimidin]-6′(7′H)-one]",72 nM,≥ 10000 nM,≥ 10000 nM,9160 nM
"O=C1N([C@@H]2CCC[C@@H](O)C2)c2nc(Nc3c[nH]nc3-c3ccccn3)ncc2C12CC2 [Example 60, 7′-((1R,3R)-3-hydroxycyclohexyl)-2′-((3-(pyridin-2-yl)-1H-pyrazol-4-yl)amino)spiro[cyclopropane-1,5′-pyrrolo[2,3-d]pyrimidin]-6′(7′H)-one]",162 nM,≥ 10000 nM,≥ 10000 nM,≥ 10000 nM
"O=C1N([C@@H]2CCC[C@@H](O)C2)c2nc(Nc3c[nH]nc3-c3nnco3)ncc2C12CC2 [Example 83, 2′-((3-(1,3,4-oxadiazol-2-yl)-1H-pyrazol-4-yl)amino)-7′-((1R,3R)-3-hydroxycyclohexyl)spiro[cyclopropane-1,5′-pyrrolo[2,3-d]pyrimidin]-6′(7′H)-one]",31 nM,2670 nM,2180 nM,8620 nM
"Cc1cc(Nc2ncc3c(n2)N([C@@H]2CCC[C@@H](O)C2)C(=O)C32CC2)[nH]n1 [Example 5, 7′-((1R,3R)-3-hydroxycyclohexyl)-2′-((3-methyl-1H-pyrazol-5-yl)amino)spiro[cyclopropane-1,5′-pyrrolo[2,3-d]pyrimidin]-6′(7′H)-one]",1120 nM,5730 nM,6690 nM,≥ 10000 nM
"N#CC1(COc2n[nH]cc2Nc2ncc3c(n2)N([C@@H]2CCC[C@@H](O)C2)C(=O)C32CC2)CC1 [Example 67, 1-(((4-((7′-((1R,3R)-3-hydroxycyclohexyl)-6′-oxo-6′,7′-dihydrospiro[cyclopropane-1,5′-pyrrolo[2,3-d]pyrimidin]-2′-yl)amino)-1H-pyrazol-3-yl)oxy)methyl)cyclopropane-1-carbonitrile]",23 nM,≥ 10000 nM,6910 nM,4130 nM
Cc1c(-c2n[nH]cc2Nc2ncc3c(n2)N([C@@H]2CCC[C@@H](O)C2)C(=O)C32CC2)cnn1C(F)F [Example 62],17 nM,1830 nM,2300 nM,4230 nM
"O=C1N([C@@H]2CCC[C@@H](O)C2)c2nc(Nc3c[nH]nc3OCC3COCC3(F)F)ncc2C12CC2 (stereo partly drawn) [Example 76, 2′-((3-((4,4-difluorotetrahydrofuran-3-yl)methoxy)-1H-pyrazol-4-yl)amino)-7′-((1R,3R)-3-hydroxycyclohexyl)spiro[cyclopropane-1,5′-pyrrolo[2,3-d]pyrimidin]-6′(7′H)-one]",32 nM,≥ 10000 nM,7270 nM,3290 nM

# Molecules with a lower IC50 [1], results first:
IC50 [1],IC50 [2],IC50 [3],IC50 [4],Compound
11 nM,2540 nM,2120 nM,1180 nM,"O=C1N([C@@H]2CCC[C@@H](O)C2)c2nc(Nc3c[nH]nc3-c3cnn4ccccc34)ncc2C12CC2 [Example 28, 7′-((1R,3R)-3-hydroxycyclohexyl)-2′-((3-(pyrazolo[1,5-a]pyridin-3-yl)-1H-pyrazol-4-yl)amino)spiro[cyclopropane-1,5′-pyrrolo[2,3-d]pyrimidin]-6′(7′H)-one]"
10 nM,3310 nM,3310 nM,2310 nM,"O=C1N([C@@H]2CCC[C@@H](O)C2)c2nc(Nc3c[nH]nc3-c3cnn(C(F)F)c3)ncc2C12CC2 [Example 34, 2′-((1′-(difluoromethyl)-1H,1′H-[3,4′-bipyrazol]-4-yl)amino)-7′-((1R,3R)-3-hydroxycyclohexyl)spiro[cyclopropane-1,5′-pyrrolo[2,3-d]pyrimidin]-6′(7′H)-one]"
7 nM,7600 nM,4150 nM,970 nM,"CSCc1n[nH]cc1Nc1ncc2c(n1)N([C@@H]1CCC[C@@H](O)C1)C(=O)C21CC1 [Example 68, 7′-((1R,3R)-3-hydroxycyclohexyl)-2′-((3-((methylthio)methyl)-1H-pyrazol-4-yl)amino)spiro[cyclopropane-1,5′-pyrrolo[2,3-d]pyrimidin]-6′(7′H)-one]"
7 nM,2950 nM,1430 nM,1200 nM,"O=C1N([C@@H]2CCC[C@@H](O)C2)c2nc(Nc3c[nH]nc3OCCF)ncc2C12CC2 [Example 39, 2′-((3-(2-fluoroethoxy)-1H-pyrazol-4-yl)amino)-7′-((1R,3R)-3-hydroxycyclohexyl)spiro[cyclopropane-1,5′-pyrrolo[2,3-d]pyrimidin]-6′(7′H)-one]"
6 nM,4800 nM,2760 nM,340 nM,"O=C1N([C@@H]2CCC[C@@H](O)C2)c2nc(Nc3c[nH]nc3C3CC3(F)F)ncc2C12CC2 (single isomer, unassigned) [Example 32]"
